Experiments:
Type in all cases: binding
myoglobin (Myo) = experiment: Intact protein MS photoaffinity labeling screen, myoglobin; details: intact protein MS after 10 min irradiation
Outline: (§1)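 Intact-protein mass spectrometry detected covalent adduct mass shifts, giving percent labeling per fragment. Beforehand, single fragments per well were pre-incubated 15 min with each benchmark protein ahead of photoactivation.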

BRD4-BD1 = tested on: T1, BRD4-BD1; experiment: Intact MS photoaffinity labeling screen, BRD4-BD1 (302 nm, LCMS-TOF); details: for MS labeling percentage, BRD4: BRD4-BD1, 302 nm 10 min
T1 construct: screened the PhP library against the first bromodomain of BRD4 (BRD4-BD1); purchased GSK/GenScript
Outline: (§2)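 Labeling detected as mass additions in deconvoluted intact-protein LCMS-TOF spectra. Protein at 1 μM in PBS was first mixed with one fragment per well on ice for 15 min, followed by 10 min UV exposure at 302 nm.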

KRas^G12D = tested on: T2, KRas^G12D; experiment: Intact MS photoaffinity labeling screen, KRas G12D (302 nm, LCMS-TOF); details: for MS labeling percentage, KRas: KRas G12D, 302 nm 10 min
T2 construct: purchased GSK/GenScript
Outline: as §2

STAT5B-NTD [1] = tested on: T3, STAT5B-NTD; experiment: Intact MS photoaffinity labeling screen, STAT5B-NTD (365 nm, UHPLC-MS); details: for MS labeling percentage, STAT5B: STAT5B-NTD, 365 nm 10 min, no photocatalyst;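 on MS labeling percentage, STAT5B: 0.17 µL of 100 mM DMSO fragment stock added to the protein sample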
T3 construct: His-SUMO (N, cleaved yes); made in house; host or cells: E. coli BL21 RILP
Outline: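 Intact-protein labeling detected by UHPLC-MS in positive ion mode over m/z 100–2000. Samples were first photo-crosslinked at 365 nm for 10 min at 4 °C. Before irradiation, 7 µM STAT5B in PBS pH 7.4 was pre-incubated with probe for 1 h in the dark at room temperature.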

STAT5B-NTD [2] = tested on: T3, STAT5B-NTD; experiment: Intact MS labeling screen, STAT5B-NTD conjugated with photocatalyst Ir-G2-PEG3-COOH (450 nm); details: 450 nm 10 min;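 further: 0.14 µL of 100 mM DMSO fragment stock added to the conjugate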
Outline: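 Ir-G2-PEG3-COOH photocatalyst (10 eq) activated 30 min with EDC/NHS/BOP, then conjugated to STAT5B-NTD (7 µM) overnight at RT or 1 h at 37 °C in dark. PhP added, 1 h dark, then 450 nm irradiation 10 min at 4 °C; labeling read by intact LC-MS, positive ion mode, m/z 100–2000.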

[3] = tested on: carbonic anhydrase II (CA); experiment: Intact protein MS photoaffinity labeling screen, carbonic anhydrase; details: intact protein MS after 10 min irradiation
Outline: as §1

lysozyme (Lyo) = experiment: Intact protein MS photoaffinity labeling screen, lysozyme; details: intact protein MS after 10 min irradiation
Outline: as §1

[4] = PhP library sheet "PhP", binary flag printed as 0 or 1, key not given
[5] = hit status flag, 1 = hit, 0 = no hit

Compound	MS labeling percentage, Myo (myoglobin (Myo))	MS labeling percentage, BRD4 (BRD4-BD1)	BRD4-BD1 (experimental hit status) (BRD4-BD1; [4])	MS labeling percentage, KRas (KRas^G12D)	KRAS-G12D (experimental hit status) (KRas^G12D; [4])	STAT5B-NTD (experimental hit status) (STAT5B-NTD [1]; [4])	MS labeling percentage, STAT5B (STAT5B-NTD [1])	MS labeling percentage, STAT5B+photocat (STAT5B-NTD [2])	MS labeling percentage, CA [3]	MS labeling percentage, Lyo (lysozyme (Lyo))	BRD4-BD1 (experimental hit status) (BRD4-BD1; [5])	KRAS-G12D (experimental hit status) (KRas^G12D; [5])	STAT5B-NTD (experimental hit status) (STAT5B-NTD [1]; [5])
CC1(CCC(=O)NCCc2c[nH]c3ccc(OCc4ccccc4)cc23)N=N1 [PhP081, N1=NC1(C)CCC(=O)NCCc(c[nH]2)c(c23)cc(cc3)OCc4ccccc4]	0.3%	0.5%	0	0.5%	0	0	1%	4%	0%	2.8%			
CC1(CCC(=O)NCc2nnc3n2CCC3)N=N1 [PhP083, N1=NC1(C)CCC(=O)NCc(nn2)n(c23)CCC3]	0.1%	0.3%	0	0.2%	0	0	1%	0.7%	0.4%	0%			
CC1(CCC(=O)NCCNC(=O)c2ccncc2)N=N1 [PhP084, N1=NC1(C)CCC(=O)NCCNC(=O)c2ccncc2]	0.4%	0.9%	0	0.3%	0	0	0%	0.7%	1.6%	0%			
CC1(CCC(=O)NC2CCc3[nH]cnc3C2)N=N1 (stereo not shown) [PhP085, N1=NC1(C)CCC(=O)NC(CC2)Cc(c23)nc[nH]3]	0.1%	0.3%	0	0.3%	0	0	1%	1.2%	0.4%	0%			
CC1(CCC(=O)NC(COCc2ccccc2)C(=O)OCc2ccccc2)N=N1 (stereo not shown) [PhP086, c1ccccc1COC(=O)C(NC(=O)CCC2(C)N=N2)COCc3ccccc3]	0.2%	0.2%	0	0.3%	0	0	0%	4.6%	0.4%	0%			
CC1(CCC(=O)Nc2ccc3oc(CN4CCCC4)nc3c2)N=N1 [PhP089, N1=NC1(C)CCC(=O)Nc2ccc3oc(CN4CCCC4)nc3c2]	0.1%	0.2%	0	0%	0	0	1%	1%	0.4%	0%			
Cc1nnc(C(C)NC(=O)CCC2(C)N=N2)[nH]1 (stereo not shown) [PhP090, Cc([nH]1)nnc1C(C)NC(=O)CCC2(C)N=N2]	0.2%	0.3%	0	0.1%	0	0	0%	0.5%	0.5%	0%			
Cn1cnc(CCNC(=O)CCC2(C)N=N2)c1 [PhP091, Cn1cnc(c1)CCNC(=O)CCC2(C)N=N2]	0.1%	0.2%	0	0.2%	0	0	0%	0.3%	0.7%	0%			
Cc1nnc(CNC(=O)CCC2(C)N=N2)[nH]1 [PhP093, Cc1nnc([nH]1)CNC(=O)CCC2(C)N=N2]	0.2%	0.5%	0	0.3%	0	0	2%	0.5%	0.5%	0%			
CC1(CCC(=O)NCCNC(=O)Nc2ccccc2)N=N1 [PhP094, N1=NC1(C)CCC(=O)NCCNC(=O)Nc2ccccc2]	0.1%	1.1%	0	0.5%	0	0	1%	2.1%	0.4%	0.9%			
Cn1nccc1C(=O)NCCNC(=O)CCC1(C)N=N1 [PhP095, Cn1nccc1C(=O)NCCNC(=O)CCC2(C)N=N2]	0.1%	0.4%	0	0.1%	0	0	0%	2.4%	0.2%	0%			
CC1(CCC(=O)NCCN2CCN(c3ccc(C(F)(F)F)cn3)CC2)N=N1 [PhP096, N1=NC1(C)CCC(=O)NCCN2CCN(CC2)c3ccc(cn3)C(F)(F)F]	0.1%	0.3%	0	0%	0	0	0%	1.1%	0%	0%			
CN(C)CC(=O)Nc1cccc(NC(=O)CCC2(C)N=N2)c1 [PhP100, CN(C)CC(=O)Nc1cccc(c1)NC(=O)CCC2(C)N=N2]	0.1%	0.6%		0%			1%	0%	0.1%	0%	0	0	0

From article PMC11292009, “Mapping protein binding sites by photoreactive fragment pharmacophores” (Communications Chemistry, 2024)
